Data on 2 molecules can be found in patent US20150274639A1, “METHODS OF USE FOR COMPOSITIONS COMPRISING A BIOCIDAL POLYAMINE” (Curza Global, LLC, priority 2013, published 2015).

Assay [1] deals with MRSA biofilm. As to the kind of experiment: MBEC, MBEC Inoculation Tray by Innovotech (to 10^2 CFU/peg in 24 hours). The assay is classed as cell-based, methicillin-resistant Staphylococcus aureus. Particulars: Table 4.
The next assay deals with biofilm of MRSA. Description: Combination treatment: dispersal of MRSA biofilm. The assay is classed as cell-based, methicillin-resistant Staphylococcus aureus. To be noted: CZ-7 at […] mixed with chlorhexidine gluconate at […]; biofilm of 10^11 cells; within one hour.
For assay [2], the system named is MRSA biofilm. As to the kind of experiment: EBEC, high number biofilms on PEEK membranes (10^9 to 10^2 CFU/PEEK membrane in 24 hours). The assay is classed as cell-based, methicillin-resistant Staphylococcus aureus. To be noted: for EBEC, MRSA: Table 4. As to the method:
(§1) In addition to determining the MIC and the MBEC of polyamine compounds against planktonic bacteria and low number biofilms, our group wanted to determine the efficacy of polyamine compounds against high number biofilms. To do so, biofilms were grown on the surface of polyetheretherketone (PEEK) membranes using a membrane biofilm reactor. This reactor is similar to the CDC biofilm reactor, but rather than growing biofilms on coupon surfaces, the reactor was modified to hold PEEK membranes. In short, to grow biofilms within this system, 500 mL of brain heart infusion (BHI) broth were inoculated with 1 mL of a 0.5 McFarland. The reactor was placed on a hot plate set at 34° C. and the bacteria were grown under batch conditions for 24 hours. Following this protocol, biofilms typically grow to 10^9 CFU/PEEK membrane. […] A solution of 10% BHI was then flowed through the reactor at a rate of 6.94 mL/min for an additional 24 hours. PEEK membranes were then removed and placed into 2 mL of CAMHB that contained a desired concentration of polyamine compound or antibiotic. The EBEC was defined as the concentration of antimicrobial required to reduce a biofilm from approximately 10^9 CFU/PEEK membrane to approximately 10^2 CFU/PEEK membrane in a 24-hour period.
(§2) In addition to determining the MIC and the MBEC of compounds against planktonic bacteria and low number biofilms, the efficacy of the compounds of the invention against high number biofilms is determined. To do so, biofilms are grown on the surface of PEEK membranes using a membrane biofilm reactor (Williams, D. L., Haymond, B. S. & Bloebaum, R. D. Use of delrin plastic in a modified CDC biofilm reactor. Res J Microbiol 6, 425-429 (2011); Williams, D. L., Woodbury, K. L., Haymond, B. S., Parker, A. E. & Bloebaum, R. D. A modified CDC biofilm reactor to produce mature biofilms on the surface of PEEK membranes for an in vivo animal model application. Curr Microbiol 62, 1657-1663 (2011); Williams, D. L. et al., In Vivo Efficacy of a Silicone—Cationic Steroid Antimicrobial Coating to Prevent Implant-Related Infection. Biomaterials 33, 8641-8656 (2012); Williams, D. L. et al., Experimental model of biofilm implant-related osteomyelitis to test combination biomaterials using biofilms as initial inocula. J Biomed Mat Res A 100, 1888-1900 (2012)). This reactor is similar to the CDC biofilm reactor, but rather than growing biofilms on coupon surfaces, the reactor was modified to hold PEEK membranes. In short, to grow biofilms within this system, 500 mL of brain heart infusion (BHI) broth is inoculated with 1 mL of a 0.5 McFarland. The reactor is placed on a hot plate set at 34° C. and the bacteria grown under batch conditions for 24 hours. A solution of 10% BHI will then be flowed through the reactor at a rate of 6.94 mL/min for an additional 24 hours. Following this protocol, biofilms typically grow to 10^9 CFU/PEEK membrane. PEEK membranes is removed and placed into 2 mL of CAMHB that contain a desired concentration of the test compound. The EBEC is defined as the concentration of antimicrobial required to reduce a biofilm from approximately 10^9 CFU/PEEK membrane to approximately 10^2 CFU/PEEK membrane in a 24-hour period.
EBEC data were collected to determine the efficacy of CZ-52, CZ-58 and traditional antibiotics against high number biofilms containing approximately 10^9 CFU grown on the surface of a polyetheretherketone (PEEK) membrane.

The test system of assay [3] is A. baumannii biofilm. As to the kind of experiment: MBEC, MBEC Inoculation Tray by Innovotech (to 10^2 CFU/peg in 24 hours). Particulars: Table 4. The assay is classed as cell-based, Acinetobacter baumannii. An excerpt:
To determine the MBEC of each polyamine compound, the MBEC Inoculation Tray by Innovotech, formerly known as the Calgary biofilm device, was used. Within this device, biofilms grow on the surface of polystyrene pegs, 96 of which are attached to a lid. These pegs are inserted into a flat bottom 96-well plate. In this instance, the MBEC of a molecule was defined as the concentration of compound (in μg/mL) required to reduce 10^5 or 10^6 CFU/peg (biofilm levels varied by isolate) to 10^2 CFU/peg in a 24-hour period.
Following the manufacturer's guidelines, biofilms were grown on the surface of each peg by first making a 0.5 McFarland of each isolate. The 0.5 McFarland was diluted 1:100 in CAMHB. Into each well of a flat bottom 96-well plate, 150 μL of broth were pipetted. The plate was shaken at 100 rpm for 24 hours (P. aeruginosa and A. baumannii) or 48 hours (MRSA). The pegs were then placed into a separate flat bottom 96-well plate for 10 seconds with 200 μL of phosphate buffered saline (PBS) in each well to remove nonadherent cells. The lid was then placed into a 96-well plate that contained varying concentrations of antimicrobial with 200 μL per well. The plate was incubated for 24 hours at 37° C. after which time 100 μL of broth were plated on TSA. TSA plates were incubated 24 hours at 37° C. and the number of CFU counted to calculate the CFU/peg. In this instance, the MBEC was defined as the concentration of antimicrobial required to reduce 10^5 or 10^6 CFU/peg to 10^2 CFU/peg in a 24 hour period.
To determine the MBEC, the MBEC Inoculation Tray by Innovotech, formerly known as the Calgary biofilm device, is used. Within this device, biofilms grow on the surface of polystyrene pegs, 96 of which are attached to a lid. These pegs are inserted into a flat bottom 96-well plate. In this instance, the MBEC of a molecule is defined as the concentration of compound required to reduce approximately 10^6 CFU/peg to approximately 10^2 CFU/peg in a 24-hour period.
Following the manufacturer's guidelines, biofilms are grown on the surface of each peg by first making a 0.5 McFarland of A. baumannii. The 0.5 McFarland is diluted 1:100 in CAMHB broth. Into each well of a flat bottom 96-well plate, 150 μL of broth is pipetted. The plate is shaken at 100 rpm for 24 hours. The pegs are placed into a separate flat bottom 96-well plate for 10 seconds with 200 μL of phosphate buffered saline (PBS) in each well to remove nonadherent cells. The lid is placed into a 96-well plate that contains varying concentrations of antimicrobial with 200 μL of broth per well. The plate is incubated for 24 hours at 37° C. after which time 100 μL of broth is plated on TSA. TSA plates is incubated 24 hours at 37° C. and the number of CFU counted to calculate the CFU/peg.
MBEC data were collected using the MBEC Inoculation Tray by Innovotech. The MBEC was defined in these preliminary results as the concentration of antimicrobial required to reduce 10^5 or 10^6 CFU/peg to 10^2 CFU/peg in a 24-hour period.

For assay [4], the system named is A. baumannii biofilm. Description: EBEC, high number biofilms on PEEK membranes (10^9 to 10^2 CFU/PEEK membrane in 24 hours). The assay is classed as cell-based, Acinetobacter baumannii. Particulars: Table 4. As for the experimental part:
as §1, §2
EBEC data were collected to determine the efficacy of CZ-52, CZ-58 and traditional antibiotics against high number biofilms containing approximately 10^9 CFU grown on the surface of a polyetheretherketone (PEEK) membrane. […] In contrast, at 250 μg/mL CZ-52 was able to reduce MRSA biofilms by greater than 7 log10 units in a 24-hour period. Although the MIC of CZ-58 was lower against MRSA compared to A. baumannii, CZ-58 had greater activity against biofilms of A. baumannii than against MRSA biofilms in the EBEC assay. […] Although the MIC of CZ-58 was “high” compared to MICs of traditional antibiotics, the efficacy against biofilms was promising.

The test system of assay [5] is MRSA biofilm. As to the kind of experiment: EBEC on PEEK membranes, 100% eradication (Example 2). The assay is classed as cell-based, methicillin-resistant Staphylococcus aureus. To be noted: PEEK membrane, eradicate all detectable amounts (100%). As for the experimental part:
The fourth test that was performed was the effective biofilm eradication concentration (EBEC). To determine the EBEC, biofilms of MRSA and P. aeruginosa ATCC 27853 were grown on the surface of PEEK membranes using a previously established protocol. Briefly, 500 mL of brain heart infusion (BHI) broth were inoculated with 10^5 cells/mL of MRSA or P. aeruginosa. BHI broth was placed into a membrane biofilm reactor and placed on a hot plate set at 34° C. for 24 hours with a stir bar rotating at 130 rpm. Following the initial 24-hour growth period, a 10% BHI broth solution was flowed through the reactor at a rate of 6.944 mL/min for another 24 hours. After 48 hours of growth, each PEEK membrane had biofilm growth on it. In this experiment, there were ˜2×10^11 cells of MRSA per PEEK membrane and −2×10^10 cells of P. aeruginosa per PEEK membrane. The EBEC was defined as the concentration of the compound that was required to eradicate all detectable amounts (100%) of bacteria within the biofilms.

The next assay deals with MRSA. As to the kind of experiment: MIC in CAMHB, 96-well plate (10^5 to 10^2 CFU/mL in 24 hours). To be noted: Table 4. It counts as cell-based, methicillin-resistant Staphylococcus aureus. As for the experimental part: To determine the MIC of polyamine compounds, the protocol described herein was used.
In brief, a 0.5 McFarland of each bacterial isolate was made. A 0.5 McFarland is a measure of turbidity in a liquid sample that contains approximately 1×10̂^8 CFU/mL. The 0.5 McFarland standard was diluted in cation adjusted Mueller Hinton Broth (CAMHB), and […], of broth were added to a well of a 96-well plate. In addition, 50 μL of CAMHB that contained a desired concentration of antimicrobial were also added to the well for a final volume of 100 and a final concentration of approximately 5×10^4 CFU/well (which equated to approximately 5×10^5 CFU/mL). Each well contained a desired amount of polyamine compound in order to experimentally determine the MIC. Each 96-well plate was incubated at 37° C. for 24 hours. The contents of each well were plated on tryptic soy agar (TSA). TSA plates were incubated for 37° C. for 24 hours after which the number of CFU were counted and used to calculate the CFU/mL that remained after exposure to varying concentrations of compound. This procedure was repeated n=8 times for each concentration of antimicrobial. […]

In assay [6] the test system is MRSA biofilm. As to the kind of experiment: MBEC assay (Calgary Biofilm Device), 100% eradication (Example 2). Particulars: eradicate 100% of detectable biofilm. The assay is classed as cell-based, methicillin-resistant Staphylococcus aureus. As to the method: In addition to determining the MIC, the minimum biofilm eradication concentration (MBEC) of PBC-51 was also determined. The MBEC was determined using the MBEC assay, formerly known as the Calgary Biofilm Device, developed by Innovotech. In this instance, the MBEC was defined as the amount of antimicrobial required to eradicate 100% of detectable biofilm after being grown in the MBEC device. To grow the biofilms within this device, 150 μL of solution containing a concentration of 10^5 cells/mL were inoculated into each well of a 96-well plate. A lid containing 96 pegs was placed onto the plate and incubated for 24 hours at 37° C. while being shaken at 110 rpm. Biofilms developed on the surface of the polystyrene pegs within the 96-well plate. After 24 hours, each peg contained between 10^5 and 10^6 cells in well-established biofilms. The lid with pegs was transferred to a 96-well plate that contained 200 μL of varying concentrations of the compound and was incubated at 37° C. for an additional 24 hours. The plate was then sonicated, and the biofilms quantified using a 10-fold dilution series to determine the MBEC.

Values after ≈ are worked out from the molar mass of the structure shown. Values joined by “and” are separate entries in the source; they are usually repeats but may differ in a detail not shown here. Equal entries are not always repeated. Where two headings read alike, the source gives them in different places. A value given as a limit tells only on which side of the number the result lay.

As to `NCCCNCCCNCc1ccccc1` [CZ-7, benzylnorspermidine], the “MBEC, MRSA” value with MRSA biofilm [1] was > 500 μg/mL and > 2,259 μM. Besides, the “dispersal of MRSA biofilm” value in the assay with biofilm of MRSA is reported as “significant dispersal”. Also, the “EBEC, MRSA” value in the assay on MRSA biofilm [2] is > 5,000 μg/mL and > 22,590 μM. Further, the “MBEC, A. baumannii” value in the assay on A. baumannii biofilm [3] was > 500 μg/mL and > 2,259 μM. In addition, in the assay on A. baumannii biofilm [4], the “EBEC, A. baumannii” value was > 10,000 μg/mL and > 45,180 μM.
As for `CN[C@H](CC(C)C)C(=O)N[C@H]1C(=O)N[C@@H](CC(N)=O)C(=O)N[C@H]2C(=O)N[C@H]3C(=O)N[C@H](C(=O)N[C@H](C(=O)O)c4cc(O)cc(O)c4-c4cc3ccc4O)[C@H](O)c3ccc(c(Cl)c3)Oc3cc2cc(c3O[C@@H]2O[C@H](CO)[C@@H](O)[C@H](O)[C@H]2O[C@H]2C[C@](C)(N)[C@H](O)[C@H](C)O2)Oc2ccc(cc2Cl)[C@H]1O` [Vancomycin, reference compound], the “MBEC, MRSA” value in the assay on MRSA biofilm [1] was > 500 μg/mL and > 345 μM. In addition, in the assay on MRSA biofilm [5], the EBEC was > 20,000 μg/mL and > 13,460 μM. Also, in the assay with MRSA biofilm [2], the “reduction of MRSA biofilms” value is given as under 1 log10 unit and the “EBEC, MRSA” value is > 25,000 μg/mL. Further, the “reduction of MRSA biofilms” value in the assay on MRSA biofilm [2] (at 25,000 μg/mL) is on record as under 1 log10 unit. Further, the “MIC, MRSA” value against MRSA was 10 mg/L (≈ 6.9 µM). The MBEC in the assay with MRSA biofilm [6] is > 500 μg/mL and > 336.50 μM.
